# Assay results published in publication PMC8478151 (European journal of pharmacology, 2021).
# Where a name gives a salt, the structure may show the parent alone.
# Biological target: α7 nicotinic acetylcholine receptor (Homo sapiens, UniProt P36544)
# Assay type: cell-based
# α7 nicotinic acetylcholine receptor, sequence (P36544 23-502): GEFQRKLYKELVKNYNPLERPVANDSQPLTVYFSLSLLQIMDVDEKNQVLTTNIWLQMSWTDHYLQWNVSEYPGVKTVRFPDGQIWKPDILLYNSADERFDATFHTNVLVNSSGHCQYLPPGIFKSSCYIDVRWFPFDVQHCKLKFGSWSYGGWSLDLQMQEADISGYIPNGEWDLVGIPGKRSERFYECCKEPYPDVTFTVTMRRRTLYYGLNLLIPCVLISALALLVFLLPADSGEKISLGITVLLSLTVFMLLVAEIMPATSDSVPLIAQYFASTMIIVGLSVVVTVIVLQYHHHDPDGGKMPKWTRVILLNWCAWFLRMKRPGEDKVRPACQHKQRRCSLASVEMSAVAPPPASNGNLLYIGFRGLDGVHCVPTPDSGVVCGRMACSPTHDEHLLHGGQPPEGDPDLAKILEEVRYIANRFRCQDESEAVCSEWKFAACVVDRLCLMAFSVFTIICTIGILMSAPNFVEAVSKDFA
smiles,measurement,value
"O=C(c1ccc(-c2cccc(C(F)(F)F)c2)o1)N1CCN2CCC1CC2 [NS6740, 1,4-diazabicyclo[3.2.2]nonan-4-yl(5-(3-(trifluoromethyl)-phenyl)-furan-2-yl)methanone hydrochloride]",EC50,420 nM
